Data: patent US6677366B2, “Methods, compositions and articles for reducing or preventing the effects of inflammation” (QLT Inc., priority 1997, dated 2004)

How the values were obtained:
filtration bleb [1] = settings: previous rabbit studies; cited from earlier work
patients [2] = settings: topical ointment postoperatively; cited from earlier work
bleb scarring = settings: in vivo; cited from earlier work
patients [3] = settings: human, in vivo; cited from earlier work
ocular fibroblasts = settings: cited from earlier work
filtration bleb [4] = type: in vivo
Description: At day 7, one rabbit from each group and, following bleb failure, two rabbits from each group, were sacrificed to undergo histologic and transmission electron microscopic (“TEM”) analysis. Histologic evaluation was performed after first fixing the cadaver eyes with 10% buffered neutral formalin. The eyes were processed, sectioned, and then stained with hematoxylin and eosin, as well as Masson's Trichrome. The specimens were examined in a masked fashion by an independent observer.
Transmission electron microscopy was performed by fixing tissue samples in 2.5% glutaraldehyde buffered with 0.1 M cacodylate containing 7% sucrose. Tissues were post fixed for one hour with 2% osmium tetroxide and dehydrated through graded alcohol concentrations to 100% ethanol. The 2×5 mm tissue blocks were then infiltrated with catalyzed epoxy resin. Thick sections (0.5 μm) were cut and stained with toluidine blue and examined by light microscopy to determine appropriate areas. Thin section (80 nm) were then cut, picked up on copper grids, and stained with uranyl acetate and lead citrate for TEM evaluation. A Hitachi H7000 transmission electron microscope was used to examine these sections.

filtration bleb [5] = experiment: Pilot light dosing of topical BPD-MA PDT during filtration surgery (Example 1); type: in vivo, rabbit
Description: Filtration surgery was performed on one eye in six normal rabbits. A Weck cell sponge was saturated with a 2 mg/mL aqueous solution of the photosensitizer benzoporphyrin derivative monoacid ring A (BPD-MA, also known as “BPD-verteporfin”). During surgery, the saturated Weck cell was used to apply BPD-MA topically for two minutes to the sclera and conjunctiva in the surgical field. After washing out the excess drug with BSS, both the sclera and conjunctiva were exposed to red light having a wavelength of about 690 nm, which was delivered by a light emitting diode (“LED”) placed at a distance of about 1 cm from the tissue to be irradiated. Each of the six rabbits used in this experiment received a different dose of light, specifically, 0, 3, 6, 12, 18 and 24 J/cm^2 over a 30-second to 4-minute time period. The treated rabbits were followed for 11-12 days after surgery by determining filtration bleb height, bleb vascularity (indicative of inflammation), and reduction in intraocular pressure (“IOP”). The data obtained on day 5 and day 11 are shown below in Tables 1A and 1B respectively.

filtration bleb [6] = experiment: Times of PDT administration, full thickness filtration surgery (Example 2); type: in vivo, rabbit
Description: The photosensitizer used in the example was prepared as follows: A liposomally formulated benzoporphyrin derivative, monoacid ring A, BPD-MA or BPD-verteporfin was supplied by QLT PhotoTherapeutics, Inc. as a lyophilized powder and was reconstituted with sterile distilled water shortly before use. The BPD was reconstituted to 1.98 mg/mL was used to saturate the 3 mm cut end of a Weck cell. In control groups, the Weck cell was saturated with basic salt solution (“BSS”).
On day 0, full thickness filtration surgery was performed on one randomly selected eye in 48 rabbits, 12 in each of four groups. In each rabbit, the untreated other eye served as a control. The filtration procedure was performed in the following manner: Each animal was anesthetized with a mixture of ketamine and xylazine. A wire speculum was used to separate the eyelids. […] Following creation of the fornix-based flap, the Weck cell saturated with BPD-MA (or BSS placebo) was placed on the sclera posterior to the limbus where the fistula was to be created. The conjunctiva was draped over the Weck Cell. The Weck cell thus rested between the conjunctiva and sclera, also coming into contact with the episclera and Tenon's capsule, for two minutes. The Weck cell was then removed and the area was irrigated with BSS. Instruments and gloves were also rinsed before entering the eye, and a 1.0 mm trephine was used to enter the anterior chamber.
The conjunctival flap was then secured to the limbus using two 7-0 vicryl sutures. […] The light source was used at a maximum output ([…]), which provided a total dosage of approximately 7.2 J.
A drop of tobramycin was then placed into each eye following surgery. Tobramycin and prednisolone acetate were instilled in both eyes four times a day for one week following surgery.
(§1) The control eye received the same photosensitizer and irradiation subconjunctivally as the surgical eye, but without a fistula being created. The control eye was used to test toxicity and as a basis for detecting a decrease in IOP for the surgical eye. The time at which the BPD-MA was applied was varied, as follows:
BPD treatment at 48 hours post surgery consisted of the application of the 3 mm cut end of a Weck cell saturated with a 2 mg/mL aqueous solution of BPD-MA (or placebo) laid on the conjunctiva over the filtration bleb for two minutes, followed by washing out the excess photosensitizer and exposure to red LED light having a wavelength of 688 nm for one minute.
(§2) Postoperatively at day 0 and every two days following surgery, the rabbits were examined with slit lamp biomicroscopy to evaluate filtration bleb extent, filtration bleb height, conjuctival erythema over the bleb, anterior chamber cell flare, and anterior chamber depth. Applanation tonometry to measure IOP following topical anesthesia. A subjective ocular discomfort assessment was also performed by determining animal comfort and eating habits, in accordance with the grading scale shown below:
Bleb survival was assessed by the extent and height of the bleb and by IOP as compared with the control eye. The degree of the inflammatory response was determined by erythema over the filtration bleb and was scored on a scale of 0-3. Rabbits were terminated when bleb failure was noted, i.e., when the intraocular pressure in the surgical eye equaled that of the control eye and the filtration bleb was flat.

control eye = experiment: Toxicity: control eye examination and adverse events (Example 2); type: in vivo, rabbit; settings: for Fibrin clot within the first four days: resolved without sequelae by end of first week
Excerpt: as §1, §2
In FIGS. 3, 4 and 5, a statistical difference was observed between groups (P ,0.001). The bleb height and extent, as well as other slit lamp characteristics, were analyzed by a chi-square test. Adverse events also were analyzed by a chi-square test. A Cox Proportional Hazard Model was used to evaluate for parameters that most accurately predicted filtration bleb survival on each examination day.

[7] = day 7, eyes that received BPD at surgery
[8] = postoperative day 5, irradiation time 30 seconds
[9] = postoperative day 5, irradiation time 1 minute
[10] = postoperative day 5, irradiation time 2 minutes
[11] = postoperative day 5, irradiation time 3 minutes
[12] = postoperative day 11, irradiation time 30 seconds
[13] = postoperative day 11, irradiation time 1 minute
[14] = postoperative day 11, irradiation time 2 minutes
[15] = postoperative day 11, irradiation time 3 minutes

Molecule: O=c1[nH]cc(F)c(=O)[nH]1 [5-Fluorouracil]
- Filtration Bleb Survival (mean days ± SD) (filtration bleb [1]): 19.5 ± 5.5 days
- Filtration Bleb Survival [range] (filtration bleb [1]): 14 to 25 days

Molecule: Nc1ncnc2c1ncn2[C@@H]1O[C@H](CO)[C@@H](O)[C@@H]1O [Ara-A]
- Filtration Bleb Survival (mean days ± SD) (filtration bleb [1]): 15.2 ± 1.8 days

Molecule: N#CCCN [BAPN, Beta-aminopropionitrite]
- Patients with IOP kept below 22 mm Hg (patients [2]): 74%
- Potency in animal studies (bleb scarring): only limited potency

Molecule: CC(C)(S)[C@@H](N)C(=O)O [D-penicillamine]
- Potency in animal studies (bleb scarring): only limited potency

Molecule: CO[C@@]12[C@H](COC(N)=O)C3=C(C(=O)C(C)=C(N)C3=O)N1C[C@@H]1N[C@@H]12 [Mitomycin-C]
- Ocular hypotony (IOP less than 5 or 6 mm Hg), fraction of patients treated (patients [3]): ⅓
- Probability of late-onset bleb leaks (patients [3]): around 25%
- Filtration Bleb Survival (mean days ± SD) (filtration bleb [1]): 34.8 ± 28.8 days
- Filtration Bleb Survival [range] (filtration bleb [1]): 6 to 23.2 days

Molecule: O=c1[nH]c(=O)n([C@H]2C[C@H](O)[C@@H](CO)O2)cc1F [floxuridine]
- Potency relative to fluorouracil in long-term inhibition of ocular fibroblasts (ocular fibroblasts): about 100 times

Molecule: Bleomycin
- Filtration Bleb Survival (mean days ± SD) (filtration bleb [1]): 25.5 ± 14.5 days
- Filtration Bleb Survival [range] (filtration bleb [1]): 21 to 50 days

Molecule: benzoporphyrin derivative monoacid ring A [BPD-MA]
- Light microscopy of filtering bleb (filtration bleb [4]; day 7, BPD only at day 2 (Group 3)): increased lymph channels in addition to the fibroblasts, but no vascular proliferation
- Light microscopy of filtering bleb: fibroblasts, vessels, lymph channels (filtration bleb [4]; [7]): no fibroblasts, vascular increase or lymphocytic channel increase
- Light microscopy of filtering bleb: lymphocytic response (filtration bleb [4]; [7]): mild lymphocytic response
- Histology of eye fistulas (filtration bleb [4]; end of the study (three weeks postoperatively)): only a few lymphocytes and no proliferation of blood vessels at the fistula
- Epithelium finding (filtration bleb [4]; rabbit, in vivo): thinned epithelium
- Histologic and transmission electron microscopic analysis for toxicity (filtration bleb [4]; surgical or control eye): no evidence of toxicity or inflammation apart from the filtration site
- Survival of the filtration bleb versus light dose (filtration bleb [5]; light doses 0-24 J/cm^2): longest in eyes treated with light at a medium range of doses
- Bleb Height (filtration bleb [5]; [8]): Small
- Bleb Vascularity (filtration bleb [5]; [8]): Vascular
- IOP Decrease (filtration bleb [5]; postoperative day 5, irradiation time 30 seconds, 2 mg/mL topical 2 min, 690 nm light): Minimal
- Bleb Height (filtration bleb [5]; [9]): Maximum
- Bleb Vascularity (filtration bleb [5]; [9]): Avascular
- IOP Decrease (filtration bleb [5]; postoperative day 5, irradiation time 1 minute, 2 mg/mL topical 2 min, 690 nm light): >20 mm Hg
- Bleb Height (filtration bleb [5]; [10]): Maximum
- Bleb Vascularity (filtration bleb [5]; [10]): Avascular'
- IOP Decrease (filtration bleb [5]; postoperative day 5, irradiation time 2 minutes, 2 mg/mL topical 2 min, 690 nm light): 20 mm Hg
- Bleb Height (filtration bleb [5]; [11]): Small
- Bleb Vascularity (filtration bleb [5]; [11]): Vascular
- IOP Decrease (filtration bleb [5]; postoperative day 5, irradiation time 3 minutes, 2 mg/mL topical 2 min, 690 nm light): 2.5 mm Hg
- Bleb Vascularity (filtration bleb [5]; postoperative day 5, irradiation time 4 minutes): Vascular
- IOP Decrease (filtration bleb [5]; postoperative day 5, irradiation time 4 minutes, 2 mg/mL topical 2 min, 690 nm light): 0-4 mm Hg
- Bleb Height (filtration bleb [5]; [12]): Minimal
- Bleb Vascularity (filtration bleb [5]; [12]): Vascular
- IOP Decrease (filtration bleb [5]; [12]): 2.3 mm Hg
- Bleb Height (filtration bleb [5]; [13]): Maximum
- Bleb Vascularity (filtration bleb [5]; [13]): Avascular
- IOP Decrease (filtration bleb [5]; [13]): >20 mm Hg
- Bleb Height (filtration bleb [5]; [14]): Maximum
- Bleb Vascularity (filtration bleb [5]; [14]): Avascular'
- IOP Decrease (filtration bleb [5]; [14]): >20 mm Hg
- Bleb Height (filtration bleb [5]; [15]): Low
- Bleb Vascularity (filtration bleb [5]; [15]): Vascular
- IOP Decrease (filtration bleb [5]; [15]): 3-4 mm Hg
- Bleb outcome (rabbit sacrificed) (filtration bleb [5]; postoperative day 11, irradiation time 4 minutes): bleb failure
- Inflammatory response (erythema over the bleb) (filtration bleb [6]; BPD and light at relatively low doses, especially during surgery): prevented the development of inflammation
- Bleb survival in comparison with placebo control or treatment only at 48 hours (filtration bleb [6]; BPD and light during surgery (Groups 2 and 4)): prolonged bleb survival
- IOP (ANOVA) (filtration bleb [6]; BPD given intraoperatively, P=0.057): trend toward lower IOP
- Mean (±SD) filtration bleb survival time (filtration bleb [6]; Group 2: BPD treatment during surgery, placebo 48 hours post surgery): 23.8 ± 12 days
- Erythema over the bleb (filtration bleb [6]; Group 3 (BPD only at 48 hours), FIG. 5): higher inflammatory response
- Mean (±SD) filtration bleb survival time (filtration bleb [6]; Group 3: placebo during surgery, BPD treatment 48 hours post surgery): 10.1 ± 9 days
- Effect of second treatment with BPD and light at 48 hours (filtration bleb [6]; Group 4): did not appear to have any additional effect
- Mean (±SD) filtration bleb survival time (filtration bleb [6]; Group 4: BPD treatment during surgery and 48 hours post surgery): 23.2 ± 8 days
- Extent and height of the bleb (filtration bleb [6]; up to 12 days postoperatively, FIG. 3, FIG. 4): indicated the effectiveness of low-dose PDT treatment during surgery
- Filtration bleb survival compared to previous rabbit studies (filtration bleb [6]; versus Table 2 literature values): prolonged the filtration bleb survival compared to normal controls, Ara-A and 5-fluorouracil
- Life of the filtration bleb compared with mitomycin C studies (filtration bleb [6]; versus literature): longer that in some rabbits who received mitomycin C
- Fibrin clot within the first four days (control eye; Group 2): three
- Fibrin clot within the first four days (control eye; Group 3): three
- Adverse events (control eye; all groups): few and not related specifically to the use of the photosensitizer
- Anterior segment ocular exam of control eye, placebo versus BPD-treated (control eye; control eye, P>0.05): no differences between the placebo and BPD-treated eyes
